Starred links: 1 amine or outer side, 2 acyl side, 3 side chain; linkers in the order of their positions; H or OH if unused. Positions of bridges follow the written chain, without caps; N, C: chain ends. Non-standard residues stand in square brackets, D forms with d. Residues, ends and D or L forms follow the SMILES beside them. Chains are numbered I, II in the order given. Actinocin(9to1) = Cc1c2oc3c(C)ccc(C(=O)[*:1])c3nc-2c(C(=O)[*:2])c(N)c1=O; NMeV = CN[C@H](C(=O)O)C(C)C; Sar = CNCC(=O)O
Assays:
MBNL-CUG RNA complex = molecular target: T1, MBNL-CUG RNA complex (Homo sapiens, UniProt Q9NR56); test: Gel shift assay, disruption of MBNL binding to short CUG repeat RNA; settings: for Disruption of the MBNL-CUG interaction: gel shift screen, increasing amounts of small molecule
T1 construct: Both the full length MBNL and MBNL (1-260) constructs were cloned using BamHI and NotI restriction sites; GST (N, cleaved yes); made in house; host or cells: E. coli BL21-Star
T1 sequence (Q9NR56 1-382 isoform Q9NR56-5): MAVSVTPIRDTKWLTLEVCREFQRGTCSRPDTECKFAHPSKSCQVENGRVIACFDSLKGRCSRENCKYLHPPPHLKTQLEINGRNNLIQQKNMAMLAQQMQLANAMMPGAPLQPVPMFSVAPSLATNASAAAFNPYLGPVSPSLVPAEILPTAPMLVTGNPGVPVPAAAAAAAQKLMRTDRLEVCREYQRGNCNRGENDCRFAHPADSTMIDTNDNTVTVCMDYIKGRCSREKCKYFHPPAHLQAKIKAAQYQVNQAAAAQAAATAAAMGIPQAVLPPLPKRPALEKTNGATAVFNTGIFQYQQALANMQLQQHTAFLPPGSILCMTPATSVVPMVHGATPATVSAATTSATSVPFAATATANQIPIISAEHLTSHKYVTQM
Procedure: MBNL1 (MBNL) was PCR amplified and was cloned into GST fusion vector pGEX-6P-1 (GE Healthcare, Piscataway, N.J.), using DNA encoding a MBNL isoform with amino acids 1-382). Both the full length MBNL and MBNL (1-260) constructs were cloned using BamHI and NotI restriction sites. Using BL21-Star expression cells (Invitrogen, Carlsbad, Calif.), protein expression was induced with 0.25 mM IPTG at an OD600 of about 0.5-1, for 3-4 hours at 37° C. Cells were lysed in 30 ml of buffer (500 mM NaCl, 25 mM Tris pH 7.5, 10 mM β-mercaptoethanol (BME) and 5% glycerol) using 1 mg/ml of lysozyme, followed by sonication (3×30 seconds). Cell extract was centrifuged for 15 minutes at 17,000 rpm, and lysate which contained GST-MBNL was collected. GST-MBNL was bound to GST affinity beads for 30 minutes at 4° C. […] The protein was then run over an anion exchange (Q) column. […] MBNL was collected in the column flow through, concentrated and dialyzed into storage buffer (30% glycerol, 300 mM NaCl, 20 mM Tris pH 7.5, 5 mM BME) and stored at −80° C. Aliquots were removed from −80° C. and temporarily placed at −20° C. until used for an experiment.
All RNA substrates that were radiolabeled were ordered from IDT DNA (Coralville, Iowa), and 5′ end-labeled using [γ-^32P]ATP. All radiolabeled RNAs were purified on 8% polyacrylamide denaturing gels.
Solutions for the protein-RNA binding experiments contained 125 mM NaCl, 5 mM MgCl2, 20 mM Tris (pH 7.5), 7.5% glycerol, 2 mg/ml bovine serum albumin, and 0.1 mg/ml heparin. Prior to incubation, RNA substrates were annealed by incubation at 95° C. for 2 minutes and then placed directly on ice for 20 minutes in 66 mM NaCl, 6.7 mM MgCl2, and 27 mM Tris (pH 7.5). Protein was then added to the RNA in the presence or absence of the small molecule. The binding reaction was carried out in a 10 μL volume and was incubated for 10 minutes at room temperature before 2-4 μL were loaded on a pre-chilled 4° C. gel. RNA and RNA-protein complexes were separated on 3% acrylamide (37.5:1), 0.3% agarose (low melting point), 0.5× Tris-Borate (TB) gels, run for approximately 2-3 hours at 4° C. at 25-50 volts. Gels were dried and autoradiographed. For the neomycin B and CUG8 gel shift, an 8% acrylamide (29:1), 0.5×TB gel was used and run for 3 hours at 4° C. at 175 volts. All small molecules were dissolved in either water or ethanol, according to the manufacturer's guidance for solubility.
(§1) For binding curves, gels were quantified using ImageQuant® software (Molecular Dynamics, Piscataway, N.J.). The percent RNA bound was determined by taking the ratio of RNA-protein complex to total RNA, per lane. Any counts in the well were discarded as it was unapparent if the RNA was bound by protein, small molecule or was in an aggregate. Binding curves were graphed using KaleidaGraph software (Synergy Software, Reading, Pa.). For the neomycin B and CUG8 gel shift, the apparent Kd was determined using Equation 1, where Y=fraction bound, m0=small molecule concentration, m1=total RNA concentration, and m2=Kd.
For determining the EC50, Equation 3 was used, where m0=small molecule concentration, m1=EC50, m2=Hill coefficient, and m3=fraction MBNL bound without small molecule present. Y=m3/[1+(m0/m1)^m2] Equation 3 Results

[1] = system: cTNT splicing reporter in HeLa cells; test: cTNT splicing reporter (exon 5 inclusion) in HeLa cells with or without CUG960 plasmid; type: cell-based; settings: presence of the CUG960 construct
Procedure: HeLa cells were grown in monolayers in DMEM with GlutaMAX™ (Gibco, Carlsbad, Calif.) and supplemented with 10% fetal bovine serum. Approximately 2.0 (±0.2)×10^5 cells were plated in 6 well plates and transfected 18-20 hours later at 70-90% confluency. 1 μg of plasmid was transfected into each well of cells, using 5 μL of […] (Invitrogen) according to the manufacturer's protocols. For co-transfection, 1 μg of total plasmid was transfected, at 500 ng of each construct. Test compounds were added 4 hours after transfection, when the media was changed. Cells were harvested 18-22 hours after transfection using TrypLE™ reagent (Gibco).
Immediately following harvesting, RNA was isolated from the cell pellets using an RNeasy® kit (Qiagen, Valencia, Calif.). 500 ng of isolated RNA was DNased with RQI DNase (Promega, Madison, Wis.) according to manufacture's protocol. 100 ng of DNAsed RNA was reverse transcribed with Superscript® II (Invitrogen, Carlsbad, Calif.) and a cTNT-specific reverse primer according to manufacturer's protocols. 30 ng of the reverse transcription reaction was subjected to 22-25 rounds of PCR amplification using cTNT specific primers spiked with a forward primer 5′ end-labeled with [γ-^32P]ATP. Similar methods were used to reverse transcribe and amplify IR and PLEKHH2. […] The resulting PCR products were run on a 6% (19:1) polyacrylamide denaturing gel. The gel was subsequently autoradiographed and quantitation of the radioactive bands was performed using ImageQuant® software.
The following primer pairs were used. For the cTNT minigene, the forward primer was […] (SEQ ID NO: 1), and the reverse primer was […] (SEQ ID NO: 2). For the IR minigene, the forward primer was […] (SEQ ID NO: 3), and the reverse primer was […] (SEQ ID NO: 4). The underlined sections are for cloning purposes. For the PLEKHH2 minigene, the forward primer was […] (SEQ ID NO: 5), and the reverse primer was […] (SEQ ID NO: 6).
The ability of pentamidine to alter the splicing defects observed in a cell-based model for DM was tested. This was accomplished in a system using cells transformed with a plasmid expressing 960 CUG repeats where the expression of these CUG repeats causes splicing defects similar to those observed in DM cells and DM subjects (Savkur et al., Nature Genet. 29:40-47, 2001).

MBNL-cTNT interaction = molecular target: T2, MBNL-cTNT interaction (Homo sapiens, UniProt Q9NR56); test: Gel shift assay, disruption of MBNL binding to cTNT pre-mRNA site; settings: read-out: EC50 for disruption of MBNL binding to cTNT target construct
T2 construct: Both the full length MBNL and MBNL (1-260) constructs were cloned using BamHI and NotI restriction sites; GST (N, cleaved yes); made in house; host or cells: E. coli BL21-Star
T2 sequence (Q9NR56 1-382 isoform Q9NR56-5): T1 sequence (Q9NR56 1-382 isoform Q9NR56-5)
Procedure: Solutions for the protein-RNA binding experiments contained 125 mM NaCl, 5 mM MgCl2, 20 mM Tris (pH 7.5), 7.5% glycerol, 2 mg/ml bovine serum albumin, and 0.1 mg/ml heparin. Prior to incubation, RNA substrates were annealed by incubation at 95° C. for 2 minutes and then placed directly on ice for 20 minutes in 66 mM NaCl, 6.7 mM MgCl2, and 27 mM Tris (pH 7.5). Protein was then added to the RNA in the presence or absence of the small molecule. The binding reaction was carried out in a 10 μL volume and was incubated for 10 minutes at room temperature before 2-4 μL were loaded on a pre-chilled 4° C. gel. […]
as §1, with “Any counts in the well were discarded as it was unapparent if the RNA was bound by protein, small molecule or was in an aggregate.” left out, “m2=Kd. […]” for “m2=Kd.”
Pentamidine has been shown previously to bind to other RNAs and DNAs (Zhang et al., RNA 6:937-951, 2000); therefore, we determined pentamidine binding to an endogenous target of MBNL. […]

SMILES	Disruption of the MBNL-CUG interaction (MBNL-CUG RNA complex)	Concentration giving complete rescue of cTNT missplicing [1]	EC50 (MBNL-CUG RNA complex; gel shift, short CUG repeat RNA (CUG4), read-out: EC50 for disruption of MBNL binding to CUG repeat construct)	EC50 (MBNL-cTNT interaction)
Cc1c2oc3c(C)ccc(C(=O)N[C@@H]4C(=O)N[C@H](C(C)C)C(=O)N5CCC[C@H]5C(=O)N(C)CC(=O)N(C)[C@@H](C(C)C)C(=O)O[C@@H]4C)c3nc-2c(C(=O)N[C@@H]2C(=O)N[C@H](C(C)C)C(=O)N3CCC[C@H]3C(=O)N(C)CC(=O)N(C)[C@@H](C(C)C)C(=O)O[C@@H]2C)c(N)c1=O [actinomycin D] (I: T[dV]P[Sar][NMeV] / II: T[dV]P[Sar][NMeV]; ester I:1-I:C, II:1-II:C; linker I:N-II:N via Actinocin(9to1))	did not disrupt the MBNL-CUG interaction at any concentration			
N=C(N)c1ccc(OCCCCCCCOc2ccc(C(=N)N)cc2)cc1 [heptamidine]		25 µM		
NC[C@@H]1O[C@H](O[C@H]2[C@@H](O)[C@H](O[C@@H]3[C@@H](O)[C@H](N)C[C@H](N)[C@H]3O[C@H]3O[C@H](CN)[C@@H](O)[C@H](O)[C@H]3N)O[C@@H]2CO)[C@H](N)[C@@H](O)[C@@H]1O [neomycin B]	disrupt the MBNL-CUG interaction at micromolar concentrations		110 µM	50 µM
NC[C@@H]1O[C@H](O[C@H]2[C@@H](O)[C@H](O[C@@H]3[C@@H](O)[C@H](N)C[C@H](N)[C@H]3O[C@H]3O[C@H](CO)[C@@H](O)[C@H](O)[C@H]3N)O[C@@H]2CO)[C@H](N)[C@@H](O)[C@@H]1O [paromomycin]	did not disrupt the MBNL-CUG interaction at any concentration			
CN1C(=Cc2cc[n+](C)c3ccccc23)Sc2ccccc21 [thiazole orange]	disrupt the MBNL-CUG interaction at micromolar concentrations			

Reference: US8436049B2, “Uses of pentamidine and related compounds” (State of Oregon Acting By and Through the State Board of …, priority 2008, dated 2013)
